This is an account of results in patent US9333268B2, “Methods of treatment with arginine deiminase” (Polaris Group, priority 2012, dated 2016).

The subject of one test is SK-LC-13. The test can be described thus: Western blot of autophagy-related protein LC3-II. Format: cell-based, human. The settings on record: 24 hour incubation. An excerpt:
Following washing, the membranes were then probed with the appropriate secondary antibody before proteins were finally visualized using ECL reagent (Perkin-Elmer, Fremont Calif., USA).
An assay for the formation of the autophagy-related protein LC3-II assessed if treatment with ADI-PEG 20 was able to induce cellular autophagy in SCLC. […] Chloroquine is a known inhibitor of autophagy that disrupts normal lysosomal functions, and thus results in an increase in the cellular level of LC3-II.
(In general: In western blotting, separated proteins are transferred to a membrane and probed.)

Test [1] concerns human pancreatic cancer cell line MIA-PaCa2. As to the kind of experiment: Western blot/ELISA of caspase 3 cleavage, LC3 and p62. In kind it is cell-based. The conditions noted are these: ChQ 5 μM added to ADI-PEG 0.3 μg/mL, 72 hours. As to the method:
The human pancreatic cancer cell line MIA-PaCa2 was treated in vitro and in vivo with pegylated arginine deiminase (ADI-PEG) alone or in the presence of ChQ. Cell death was measured by propidium iodide (PI)-FACS to determine sub-G1 DNA content, and apoptosis was evaluated by Annexin V-PI flow cytometry. Cleavage of caspase 3 was evaluated by western blots and ELISA. Autophagy was measured by evaluating the expression levels of LC3 and […] p62 (p62) by western blots and ELISA.
In order to determine if ADI induces apoptosis and autophagy in a caspase dependent manner, cells were incubated with either ADI-PEG or a combination of ADI-PEG and ZVAD-fmk, a pan-caspase inhibitor.
The levels of p62, LC3B-I, and LC3B-II were measured by western blot analysis in order to examine autophagic flux.

Another test relates to SK-LC-13 cells. As to the kind of experiment: FACS analysis of apoptosis by sub-G1 DNA content (propidium iodide). In kind it is cell-based, human. The conditions noted are these: 25 nM, 72 h. The procedure: Apoptosis was measured by FACS of propidium-iodide-stained cells as detailed by Riccardi et al (Riccardi and Nicoletti, Nat Protoc 1(3):1458-1461, 2006). Cells were plated in 24-well plates and treated with ADI-PEG 20 for […]. Cells were then harvested, washed and fixed in 70% ethanol. DNA was then stained using 20 μg ml^−1 propidium iodide containing 10 μgml^−1 DNAse-free RNAse A (Sigma-Aldrich). Cells were then read on a BD FACSCalibur (BD Biosciences) and analyzed using Flow Jo Software (Tree Star, Ashland, Oreg., USA).
In order to determine the possible mechanism of the antiproliferative effects of ADI-PEG 20 a FACS analysis of apoptosis by sub-G1 DNA content was performed. Cells were treated for 72 h before the analysis was performed.
In general terms: Flow cytometry measures light scatter and fluorescence of single cells or particles in a stream.

Where a name gives a salt, the structure may show the parent alone.

In the case of `CCN(CC)CCCC(C)Nc1ccnc2cc(Cl)ccc12` (stereo not drawn) [chloroquine, reference compound], the “cellular level of LC3-II” value in the test on SK-LC-13 is “very robust expression of LC3-II”.
With `CCN(CCO)CCCC(C)Nc1ccnc2cc(Cl)ccc12` (stereo not drawn) [ChQ, hydroxychloroquine], in test [1], the ADI induced apoptosis entry is “enhanced ADI induced apoptosis”; the “LC3B-I and LC3B-II” value is “increase in the build up of both LC3B-I and LC3B-II”; the autophagic flux result is recorded as “diminished autophagic flux”; the “level of p62” value is on record as “increase in the level of p62”.
Take `CC[C@@]1(O)C(=O)OCc2c1cc1n(c2=O)Cc2cc3c(CN(C)C)c(O)ccc3nc2-1` [topotecan, Topotecan hydrochloride, reference compound]: the “cells in apoptosis (sub-G1 DNA content)” value in the test on SK-LC-13 cells was “around 45%”.
